pIC50: −log10 of the molar value.
molecular target: human PAD4 (hPAD4) (Homo sapiens, UniProt Q9UM07); test: RFMS human PAD4 functional assay (rapid-fire mass spectrum); assay type: biochemical; details: 5 nM hPAD4 enzyme, 250 μM BAEE, 50 μM Calcium; 30 min preincubation, 90 min reaction at 37° C.
Summary of the method: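 PAD4 (10 nM) preincubated 30 min with compound (top final 50 μM), then BAEE substrate added in pH 7.5 HEPES buffer with DTT, 50 μM calcium, TPEN; 90 min at 37° C. After TCA quench, citrulline derivatized with phenyl glyoxal (4 mM final, 30 min, 37° C) and quantified by RapidFire MS against internal standard.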

human PAD4 (hPAD4), sequence (Q9UM07 whole entry): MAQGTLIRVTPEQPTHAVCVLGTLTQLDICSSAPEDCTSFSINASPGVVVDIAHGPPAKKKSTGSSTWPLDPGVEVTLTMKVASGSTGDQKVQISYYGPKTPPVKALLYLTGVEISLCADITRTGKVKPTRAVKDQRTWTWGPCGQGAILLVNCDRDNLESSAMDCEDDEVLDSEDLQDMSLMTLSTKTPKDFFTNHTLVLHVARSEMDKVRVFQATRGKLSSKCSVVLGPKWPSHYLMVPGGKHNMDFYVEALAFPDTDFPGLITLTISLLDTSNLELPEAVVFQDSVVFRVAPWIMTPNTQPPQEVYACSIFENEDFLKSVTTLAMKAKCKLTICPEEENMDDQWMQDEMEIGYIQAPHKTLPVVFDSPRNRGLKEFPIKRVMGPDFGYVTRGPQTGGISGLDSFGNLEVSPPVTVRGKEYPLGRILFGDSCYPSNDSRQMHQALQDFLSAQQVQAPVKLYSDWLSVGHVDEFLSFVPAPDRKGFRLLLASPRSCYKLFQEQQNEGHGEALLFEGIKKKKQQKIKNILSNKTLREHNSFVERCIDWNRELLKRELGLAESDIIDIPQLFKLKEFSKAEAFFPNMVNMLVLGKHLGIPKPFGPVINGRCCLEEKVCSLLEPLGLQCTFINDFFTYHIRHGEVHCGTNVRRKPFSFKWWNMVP

`COc1cc(C(=O)N2CC3CCC2[C@@H]3N)cc2nc(-c3cc4ccccc4n3CC3CC3)n(CC3CN(C(=O)c4cncnc4)C3)c12` (stereo partly drawn) [Example 443, (7R)-2-{2-[1-(cyclopropylmethyl)-1H-indol-2-yl]-7-methoxy-1-{[1-(pyrimidine-5-carbonyl)azetidin-3-yl]methyl}-1H-1,3-benzodiazole-5-carbonyl}-2-azabicyclo[2.2.1]heptan-7-amine] and `COc1cc(C(=O)N2CC3CCC2[C@@H]3N)cc2nc(-c3cc4ccccc4n3CC3CC3)n(CC3CN(C(=O)c4ccncn4)C3)c12` (stereo partly drawn) [Example 437, (7R)-2-{2-[1-(cyclopropylmethyl)-1H-indol-2-yl]-7-methoxy-1-{[1-(pyrimidine-4-carbonyl)azetidin-3-yl]methyl}-1H-1,3-benzodiazole-5-carbonyl}-2-azabicyclo[2.2.1]heptan-7-amine] are within 0.2 log units of each other in pIC50: 7.38 for the first, 7.47 for the second.

`COc1cc(C(=O)N2CC3CCC2[C@@H]3N)cc2nc(-c3cc4ccccc4n3CC3CC3)n(CC3CN(C(=O)c4cc(C)nc(C)c4)C3)c12` (stereo partly drawn) [Example 418, (7R)-2-{2-[1-(cyclopropylmethyl)-1H-indol-2-yl]-1-{[1-(2,6-dimethylpyridine-4-carbonyl)azetidin-3-yl]methyl}-7-methoxy-1H-1,3-benzodiazole-5-carbonyl}-2-azabicyclo[2.2.1]heptan-7-amine] and `CNc1cc(C(=O)N2CC(Cn3c(-c4cc5ccccc5n4CC4CC4)nc4cc(C(=O)N5CC6CCC5[C@@H]6N)cc(OC)c43)C2)ccn1` (stereo partly drawn) [Example 412, (7R)-2-{2-[1-(cyclopropylmethyl)-1H-indol-2-yl]-7-methoxy-1-({1-[2-(methylamino)pyridine-4-carbonyl]azetidin-3-yl}methyl)-1H-1,3-benzodiazole-5-carbonyl}-2-azabicyclo[2.2.1]heptan-7-amine] are within 0.2 log units of each other in pIC50: 7.85 for the first, 7.74 for the second.

Going from `COc1ccc2cc(-c3nc4cc(C(=O)N5C[C@H]6CC[C@@H]5[C@@H]6N)cc(OC)c4n3CC3CN(c4ccnc(C#N)n4)C3)n(CC3CC3)c2n1` [Example 2, 4-(3-((5-((1R,4R,7R)-7-amino-2-azabicyclo[2.2.1]heptane-2-carbonyl)-2-(1-(cyclopropylmethyl)-6-methoxy-1H-pyrrolo[2,3-b]pyridin-2-yl)-7-methoxy-1H-benzo[d]imidazol-1-yl)methyl)azetidin-1-yl)pyrimidine-2-carbonitrile] to `COc1cc(C(=O)N2C[C@H]3CC[C@@H]2[C@@H]3N)cc2nc(-c3cc4cccnc4n3CC3CC3)n(C[C@H]3CCN(c4ccnc(C)n4)C3)c12` [Example 208, ((1R,4R,7R)-7-amino-2-azabicyclo[2.2.1]heptan-2-yl)(2-(1-(cyclopropylmethyl)-1H-pyrrolo[2,3-b]pyridin-2-yl)-7-methoxy-1-(((S)-1-(2-methylpyrimidin-4-yl)pyrrolidin-3-yl)methyl)-1H-benzo[d]imidazol-5-yl)methanone], the pIC50 rises from 7.31 to 7.60 (0.29 log units). The second is the more potent here.

Compared with `COc1cc(C(=O)C2C[C@H]3CC[C@H]2[C@@H]3N)cc2nc(-c3cc4ccccc4n3CC3CC3)n(C[C@H]3CCNC3)c12` (stereo partly drawn) [Example 273, (1R,4R,7R)-2-{2-[1-(cyclopropylmethyl)-1H-indol-2-yl]-7-methoxy-1-{[(3S)-pyrrolidin-3-yl]methyl}-1H-1,3-benzodiazole-5-carbonyl}bicyclo[2.2.1]heptan-7-amine], `COc1cc(C(=O)N2CC3CCC2[C@@H]3N)cc2nc(-c3cc4ccccc4n3CC3CC3)n(CC3CC(=O)N(C)C3)c12` (stereo partly drawn) [Example 474, 4-({5-[(7R)-7-amino-2-azabicyclo[2.2.1]heptane-2-carbonyl]-2-[1-(cyclopropylmethyl)-1H-indol-2-yl]-7-methoxy-1H-1,3-benzodiazol-1-yl}methyl)-1-methylpyrrolidin-2-one] is 0.65 log units lower in pIC50: 7.48 for the first, 6.83 for the second.

First: COc1cc(C(=O)N2C[C@H]3CC[C@@H]2[C@@H]3N)cc2nc(-c3cc4ccccc4n3CC3CC3)n(CC3CN(C(=O)c4ccc(C(=O)O)cc4)C3)c12 [Example 151, 4-[3-({5-[(1R,4R,7R)-7-amino-2-azabicyclo[2.2.1]heptane-2-carbonyl]-2-[1-(cyclopropylmethyl)-1H-indol-2-yl]-7-methoxy-1H-1,3-benzodiazol-1-yl}methyl)azetidine-1-carbonyl]benzoic acid]
Second: COc1cc(C(=O)N2CC3CCC2[C@@H]3N)cc2nc(-c3cc4ccccc4n3CC3CC3)n(CC3CN(C(=O)Nc4ccccc4)C3)c12 (stereo partly drawn) [Example 472, 3-({5-[(7R)-7-amino-2-azabicyclo[2.2.1]heptane-2-carbonyl]-2-[1-(cyclopropylmethyl)-1H-indol-2-yl]-7-methoxy-1H-1,3-benzodiazol-1-yl}methyl)-N-phenylazetidine-1-carboxamide]
The pIC50 of the first is 0.58 log units higher: 7.70 for the first, 7.12 for the second. The first is the more potent here.

First: COc1cc(C(=O)N2CC3CCC2[C@@H]3N)cc2nc(-c3cc4ccccc4n3C)n(Cc3cnn(C)c3)c12 (stereo partly drawn) [Example 513, (7R)-2-[7-methoxy-2-(1-methyl-1H-indol-2-yl)-1-[(1-methyl-1H-pyrazol-4-yl)methyl]-1H-1,3-benzodiazole-5-carbonyl]-2-azabicyclo[2.2.1]heptan-7-amine]
Second: COc1cc(C(=O)N2C[C@H]3CC[C@@H]2[C@@H]3N)cc2nc(-c3cc4cccnc4n3CC3CC3)n(Cc3cnn(C)c3)c12 [Example 243, (1R,4R,7R)-2-{2-[1-(cyclopropylmethyl)-1H-pyrrolo[2,3-b]pyridin-2-yl]-7-methoxy-1-[(1-methyl-1H-pyrazol-4-yl)methyl]-1H-1,3-benzodiazole-5-carbonyl}-2-azabicyclo[2.2.1]heptan-7-amine]
The pIC50 of the first is 1.07 log units lower: 6.41 for the first, 7.48 for the second.

Going from `COc1cc(C(=O)N2C[C@H](N)C[C@@H](F)C2)cc2nc(-c3cc4ccccc4n3CC3CC3)n(Cc3ccnn3C)c12` [Example 277, (3R,5R)-1-{2-[1-(cyclopropylmethyl)-1H-indol-2-yl]-7-methoxy-1-[(1-methyl-1H-pyrazol-5-yl)methyl]-1H-1,3-benzodiazole-5-carbonyl}-5-fluoropiperidin-3-amine] to `COc1cc(C(=O)N2CC3CCC2[C@@H]3N)cc2nc(-c3cc4ccccc4n3CC3CC3)n(Cc3cnn(-c4cc(Cl)ccn4)c3)c12` (stereo partly drawn) [Example 392, (7R)-2-(1-{[1-(4-chloropyridin-2-yl)-1H-pyrazol-4-yl]methyl}-2-[1-(cyclopropylmethyl)-1H-indol-2-yl]-7-methoxy-1H-1,3-benzodiazole-5-carbonyl)-2-azabicyclo[2.2.1]heptan-7-amine], the pIC50 rises from 6.50 to 7.32 (0.82 log units).

`COc1cc(C(=O)N2C[C@H]3CC[C@@H]2[C@@H]3N)cc2nc(-c3cc4cccnc4n3CC3CC3)n(C[C@@H]3CCN(c4cncnc4C#N)C3)c12` [Example 214, 5-[(3R)-3-({5-[(1R,4R,7R)-7-amino-2-azabicyclo[2.2.1]heptane-2-carbonyl]-2-[1-(cyclopropylmethyl)-1H-pyrrolo[2,3-b]pyridin-2-yl]-7-methoxy-1H-1,3-benzodiazol-1-yl}methyl)pyrrolidin-1-yl]pyrimidine-4-carbonitrile] and `COc1cc(C(=O)N2C[C@H]3CC[C@@H]2[C@@H]3N)cc2nc(-c3cc4cccnc4n3CC3CC3)n(CC3CN(c4cccnc4C#N)C3)c12` [Example 36, 3-[3-({5-[(1R,4R,7R)-7-amino-2-azabicyclo[2.2.1]heptane-2-carbonyl]-2-[1-(cyclopropylmethyl)-1H-pyrrolo[2,3-b]pyridin-2-yl]-7-methoxy-1H-1,3-benzodiazol-1-yl}methyl)azetidin-1-yl]pyridine-2-carbonitrile] are within 0.2 log units of each other in pIC50: 6.94 for the first, 7.04 for the second.

First: COc1cc(C(=O)N2C[C@H]3CC[C@@H]2[C@@H]3N)cc2nc(-c3cc4ccccc4n3CC3CC3)n(CC3CN(c4cncc(C#N)n4)C3)c12 [Example 65, 6-[3-({5-[(1R,4R,7R)-7-amino-2-azabicyclo[2.2.1]heptane-2-carbonyl]-2-[1-(cyclopropylmethyl)-1H-indol-2-yl]-7-methoxy-1H-1,3-benzodiazol-1-yl}methyl)azetidin-1-yl]pyrazine-2-carbonitrile]
Second: C=CC(=O)N1CC(Cn2c(-c3cc4cccnc4n3CC3CC3)nc3cc(C(=O)N4C[C@H]5CC[C@@H]4[C@@H]5N)cc(OC)c32)C1 [Example 124, 1-[3-({5-[(1R,4R,7R)-7-amino-2-azabicyclo[2.2.1]heptane-2-carbonyl]-2-[1-(cyclopropylmethyl)-1H-pyrrolo[2,3-b]pyridin-2-yl]-7-methoxy-1H-1,3-benzodiazol-1-yl}methyl)azetidin-1-yl]prop-2-en-1-one]
The pIC50 of the first is 0.56 log units higher: 7.55 for the first, 6.99 for the second. The first is the more potent here.

First: COc1cc(C(=O)N2C[C@H]3CC[C@@H]2[C@@H]3N)cc2nc(-c3cc4cccnc4n3CC3CC3)n(C3CN(C(=O)c4ccnc(Cl)c4)C3)c12 [Example 98, (1R,4R,7R)-2-{1-[1-(2-chloropyridine-4-carbonyl)azetidin-3-yl]-2-[1-(cyclopropylmethyl)-1H-pyrrolo[2,3-b]pyridin-2-yl]-7-methoxy-1H-1,3-benzodiazole-5-carbonyl}-2-azabicyclo[2.2.1]heptan-7-amine]
Second: COc1cc(C(=O)N2CC3CCC2[C@@H]3N)cc2nc(-c3cc4cccnc4n3CC3CC3)n(Cc3cnn(-c4cccc(C)n4)c3)c12 (stereo partly drawn) [Example 355, (7R)-2-{2-[1-(cyclopropylmethyl)-1H-pyrrolo[2,3-b]pyridin-2-yl]-7-methoxy-1-{[1-(6-methylpyridin-2-yl)-1H-pyrazol-4-yl]methyl}-1H-1,3-benzodiazole-5-carbonyl}-2-azabicyclo[2.2.1]heptan-7-amine]
The pIC50 of the first is 0.51 log units lower: 7.15 for the first, 7.66 for the second.

`COc1ncc(-n2cc(Cn3c(-c4cc5ccccc5n4CC4CC4)nc4cc(C(=O)N5CC6CCC5[C@@H]6N)cc(OC)c43)cn2)cc1F` (stereo partly drawn) [Example 410, (7R)-2-{2-[1-(cyclopropylmethyl)-1H-indol-2-yl]-1-{[1-(5-fluoro-6-methoxypyridin-3-yl)-1H-pyrazol-4-yl]methyl}-7-methoxy-1H-1,3-benzodiazole-5-carbonyl}-2-azabicyclo[2.2.1]heptan-7-amine] showed a pIC50 of 7.06.

— patent US12692254B2, “Benzimidazole inhibitors of PAD enzymes” (BRISTOL-MYERS SQUIBB COMPANY, priority 2018, dated 2026)
